The record followed here is US20030229066A1, “Novel heterocyclic urea derivatives and their use as dopamine D3 receptor ligands” (priority 2001, published 2003).

The structures appear in SMILES notation.

The target of one assay is T1, cloned human alpha-1A adrenergic receptors (α1a) (Homo sapiens, UniProt P35348).
T1 construct: expressed in transfected cells
T1 sequence (P35348 1-466): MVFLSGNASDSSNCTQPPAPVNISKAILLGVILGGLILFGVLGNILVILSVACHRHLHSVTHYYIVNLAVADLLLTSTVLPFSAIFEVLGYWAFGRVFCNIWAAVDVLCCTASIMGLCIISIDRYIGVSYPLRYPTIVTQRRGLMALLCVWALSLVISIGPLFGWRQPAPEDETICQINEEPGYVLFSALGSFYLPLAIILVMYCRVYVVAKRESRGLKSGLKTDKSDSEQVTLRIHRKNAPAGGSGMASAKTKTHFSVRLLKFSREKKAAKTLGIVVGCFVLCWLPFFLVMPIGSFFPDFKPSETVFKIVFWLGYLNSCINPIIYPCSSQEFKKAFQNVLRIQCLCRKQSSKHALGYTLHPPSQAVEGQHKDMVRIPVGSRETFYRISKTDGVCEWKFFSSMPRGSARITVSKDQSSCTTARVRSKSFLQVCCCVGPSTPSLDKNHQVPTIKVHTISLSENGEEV
As to the kind of experiment: [3H]Prazosin binding to cloned human alpha-1A adrenergic receptors expressed in CHO cells. The following applies: @1 μM. The text has this:
[^3H]PRAZOSIN BINDING TO CLONED HUMAN ALPHA-1A ADRENERGIC RECEPTORS (α1a) EXPRESSED IN CHINESE HAMSTER OVARY CELLS (CHO)
This in vitro assay is designed as a screen to identify compounds displaying a affinity for the human α1a adrenoceptor subtype expressed in the membrane fragments of CHO cells. The assay-measures the ability of the test compounds to displace [^3H]prazosin from α1a sites.
Therefore, the binding of compounds to α1a adrenergic receptors is believed to be a good measure of a compound's potential to cause orthostatic hypotension and sedation as side effects. Prazosin is a potent antagonist of the human α1a-adrenoceptor subtype, which has been cloned and is expressed in the membrane fragments of CHO cells.
The cloning of the human α1a cDNA was accomplished first by screening a human prostate cDNA library (Clontech), from which a portion of the coding region was obtained. This DNA fragment was then used to screen a human leukocyte genomic library (Clontech), and the rest of the coding sequence was obtained. Later these two fragments were spliced together. The entire coding sequence was then fully sequenced including matching PCR sequence with original genomic coding sequence, thus ensuring splice sites were joined correctly (Schwinn et al., 1995). Once sequenced, the gene was subcloned into the expression vector pcDNA3 (Invitrogen). Plasmid DNA was then used for transfection into CHO cells and G418 resistant clones were isolated. A clone expressing high levels of the hα1a receptor (as determined by mRNA and receptor binding data) was chosen and pharmacologically characterized.
[7-methoxy-^3H]-Prazosin: 1.0 nM (NEN, NET-823) 70-87 Ci/mmol
A: 50 mM Tris HCl; 0.1% ascorbate, pH 7.7 (incubation buffer)
Total Binding=50 μl buffer A+50 μl [^3H]prazosin+100 μl membrane
Nonsp. Bd.=50 μl 10 μM phentolamine+50 μl [^3H]prazosin+100 μl membrane
Test Cpd.=50 μl compound+50 μl [^3H]prazosin+100 μl membrane
Compounds to be evaluated are weighed out to yield a 10 mM stock solution in DMSO in a 24 well polystyrene plate. This is diluted to a 0.5 mM stock in dH2O. Serial dilutions in Buffer A are made from which 50 μl additions to the plate are made in duplicate in order to achieve the final concentrations desired. Typically, one 96 well plate is used to evaluate 11 compounds at 4 concentrations (10^−6-10^−9 M) in duplicate. Total binding and nonspecific binding are determined in quadruplicate. Usually one standard is run with each assay.
[^3H]Prazosin is made up in Buffer A such that when 50 μl are added per well the final concentration is 1.0 nM in a final assay volume of 200 μl. The final concentration should be verified by running a sample in a scintillation counter prior to adding the [^3H]prazosin to the 96 well plate. Note: The radioactivity should be prepared just before the additions are made so that it is not allowed to sit on the bench for very long.
Incubation & Filtration: Once buffer, compounds, [^3H]prazosin and membrane have been added (and mixed), the 96 well plates are incubated for 40 min at 37° C. and spaced 3-5 min apart. At 40 min, the plates are filtered using a Tomtec Automated Cell Harvester. Filtration is immediately followed by washes of ice cold Buffer B (total vol. ˜7 ml).
Analysis of Results: Raw DPM and CPM data are captured on disk and are imported into one of several software packages (Graphpad Prism Ver 2.0, Excel) residing on the LAN. Specific binding is defined as the difference between total binding and the binding in the presence of 10 μM phentolamine. Total binding is less than 10% of the total added ligand. Software using one-site competition curve analysis is employed in the calculation of IC50 and Kj (Cheng-Prusoff equation, 1973). The top and bottom of the non-linear regression are held constant at 0% and 100% inhibition. The percent inhibition at each drug concentration is the mean of duplicate determinations.
Regarding `COc1ccc(NC(=O)NCCCCN2CCN(c3csc4cc(C(F)(F)F)ccc34)CC2)cc1` [compound 815994], the “halpha1 % I” value is listed as 11.9& Inh @1 μM % Inh.

The same assay, now with this note: @10 μM.
Turning to `CCCOc1ccc(NC(=O)NCCCCN2CCN(c3csc4cc(C(F)(F)F)ccc34)CC2)cc1` [compound 815995], the “halpha1 % I” value is recorded as 42.4% Inh @10 μM.

The same assay, now with this note: Table II, pairs of 6-fluoro and 6-trifluoromethyl benzo[b]thiophenes; read-out: halpha1Ki.
On to `O=C(NCCCCN1CCN(c2csc3cc(F)ccc23)CC1)Nc1ccccc1` [compound 813581], for which the Ki amounted to 0.0015 µM.

Turning to `CC(=O)c1ccc(NC(=O)NCCCCN2CCN(c3csc4cc(F)ccc34)CC2)cc1` [compound 814932], the Ki was 0.0022 µM.

`COc1ccc(NC(=O)NCCCCN2CCN(c3csc4cc(F)ccc34)CC2)cc1` [compound 814933]: the Ki was 0.0018 µM.

For `CCCCc1ccc(NC(=O)NCCCCN2CCN(c3csc4cc(F)ccc34)CC2)cc1` [compound 814937], the Ki was 0.532 µM.

Consider `Cc1ccc(NC(=O)NCCCCN2CCN(c3csc4cc(F)ccc34)CC2)cc1` [compound 814941], for which the Ki turned out to be 0.0135 µM.

Consider `O=C(NCCCCN1CCN(c2csc3cc(F)ccc23)CC1)NC1CCCCC1` [compound 814945], for which the Ki was 0.0045 µM.

Take `O=C(NCCCCN1CCN(c2csc3cc(F)ccc23)CC1)Nc1ccc(Br)cc1` [compound 814949]: the Ki was found to be 0.0182 µM.

Consider `O=C(NCCCCN1CCN(c2csc3cc(F)ccc23)CC1)Nc1ccc(C(F)(F)F)cc1` [compound 814952], for which the Ki came out at 0.0448 µM.

With `O=C(NCCCCN1CCN(c2csc3cc(F)ccc23)CC1)Nc1cccc(F)c1` [compound 814953], the Ki came to 0.0035 µM.

Turning to `CC(=O)c1ccc(NC(=O)NCCCCN2CCN(c3csc4cc(C(F)(F)F)ccc34)CC2)cc1` [compound 815993], the Ki was 0.0749 µM.

As to `COc1ccc(NC(=O)NCCCCN2CCN(c3csc4cc(C(F)(F)F)ccc34)CC2)cc1` [compound 815994], the Ki worked out at 1.22 µM.

For the next assay, the target named is T2, cloned human dopamine D3 receptors (Homo sapiens, UniProt P35462).
T2 construct: expressed in transfected cells
T2 sequence (P35462 whole entry): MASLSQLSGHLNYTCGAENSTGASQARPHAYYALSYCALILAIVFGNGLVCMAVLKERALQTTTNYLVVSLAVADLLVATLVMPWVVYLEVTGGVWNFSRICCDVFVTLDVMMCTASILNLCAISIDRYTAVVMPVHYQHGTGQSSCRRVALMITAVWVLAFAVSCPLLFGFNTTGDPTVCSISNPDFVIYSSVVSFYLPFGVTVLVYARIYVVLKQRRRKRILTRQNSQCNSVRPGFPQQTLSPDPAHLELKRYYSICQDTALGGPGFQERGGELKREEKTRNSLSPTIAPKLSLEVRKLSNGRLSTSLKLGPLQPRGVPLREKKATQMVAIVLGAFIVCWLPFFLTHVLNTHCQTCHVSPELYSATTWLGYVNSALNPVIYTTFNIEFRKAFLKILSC
The assay is described as follows: [N-Methyl-3H]Spiroperidol binding to cloned human dopamine D3 receptors.
Conditions: not given
Summed up: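 Competition binding on homogenized CHO cells stably expressing human D3, with 0.4 nM [3H]NMSP (final), 37 °C for 30 min, filtration and scintillation counting. Nonspecific binding defined with 3 μM S(-)-eticlopride; typically eight test concentrations, 10^−5–10^−8 M final. Ki by Cheng-Prusoff from one-site competition fits, duplicate means.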
`O=C(NCCCCN1CCCN(c2noc3ccsc23)CC1)Nc1ccc(F)c(C(F)(F)F)c1` [compound 829427]: the Ki came to 0.459 µM.

As to `O=C(NCCCCN1CCCN(c2noc3ccsc23)CC1)Nc1ccc(F)cc1` [compound 829428], the Ki is 0.747 µM.

Turning to `O=C(NCCCCN1CCCN(c2noc3ccsc23)CC1)Nc1ccc(Cl)c(Cl)c1` [compound 829429], the Ki was 0.111 µM.

For `O=C(NCCCCN1CCCN(c2noc3ccsc23)CC1)Nc1cccc(F)c1` [compound 829431], the Ki was found to be 0.153 µM.

`O=C(NCCCCN1CCCN(c2noc3ccsc23)CC1)Nc1cccc(C(F)(F)F)c1` [compound 829432]: the Ki worked out at 0.226 µM.

In turn, `COc1ccc(NC(=O)NCCCCN2CCCN(c3noc4ccsc34)CC2)cc1` [compound 829433] yielded a Ki of 0.216 µM.

The molecule `O=C(NCCCCN1CCCN(c2noc3ccsc23)CC1)Nc1ccc(Br)cc1` [compound 829434] returned a Ki of 0.197 µM.

In turn, `CCOc1ccc(NC(=O)NCCCCN2CCC(c3noc4c(C)csc34)CC2)cc1` [compound 829873] showed a Ki of 0.0277 µM.

Take `CCOc1ccc(NC(=O)N(CCCCN2CCC(c3noc4c(C)csc34)CC2)C(=O)Nc2ccc(OCC)cc2)cc1` [compound 829874]: the Ki was determined as 0.36 µM.

As for `Cc1csc2c(C3CCN(CCCCN(C(=O)Nc4cccc(F)c4)C(=O)Nc4cccc(F)c4)CC3)noc12` [compound 829875], the Ki came to 0.0947 µM.

In turn, `COc1cccc(NC(=O)N(CCCCN2CCC(c3noc4c(C)csc34)CC2)C(=O)Nc2cccc(OC)c2)c1` [compound 829876] displayed a Ki of 0.0771 µM.

`Cc1cccc(NC(=O)NCCCCN2CCC(c3noc4c(C)csc34)CC2)c1` [compound 829878] had a Ki of 0.00878 µM.

Turning to `Cc1csc2c(C3CCN(CCCCNC(=O)Nc4ccccc4F)CC3)noc12` [compound 829879], the Ki came to 0.354 µM.

Consider `Cc1csc2c(C3CCN(CCCCNC(=O)Nc4cccc(C(F)(F)F)c4Cl)CC3)noc12` [compound 829882], for which the Ki came to 0.143 µM.

Molecule `Cc1ccc(NC(=O)NCCCCN2CCC(c3noc4cc(C)sc34)CC2)cc1` [compound 830517] had a Ki of 0.00904 µM.

On to `COc1ccc(NC(=O)NCCCCN2CCC(c3noc4cc(C)sc34)CC2)cc1` [compound 830518], for which the Ki stood at 0.00916 µM.

For `O=C(NC[C@@H]1C[C@H]1CN1CCN(c2csc3cc(C(F)(F)F)ccc23)CC1)Nc1cccc(F)c1` [compound 832786], the Ki was 0.0616 µM.

Molecule `COc1ccc(NC(=O)NC[C@@H]2C[C@H]2CN2CCN(c3csc4cc(C(F)(F)F)ccc34)CC2)cc1` [compound 832810] came in with a Ki of 0.0335 µM.

`O=C(NC[C@@H]1C[C@H]1CN1CCN(c2csc3cc(C(F)(F)F)ccc23)CC1)NC1CCCCC1` [compound 832811] showed a Ki of 0.0182 µM.

`O=C(NC[C@@H]1C[C@H]1CN1CCN(c2csc3cc(C(F)(F)F)ccc23)CC1)Nc1ccccc1C(F)(F)F` [compound 832812] had a Ki of 0.0395 µM.

On to `O=C(NC[C@@H]1C[C@H]1CN1CCN(c2csc3cc(C(F)(F)F)ccc23)CC1)Nc1cccc(Cl)c1` [compound 832813], for which the Ki is 0.0508 µM.

For the molecule `O=C(NC[C@@H]1C[C@H]1CN1CCN(c2csc3cc(C(F)(F)F)ccc23)CC1)Nc1ccc(Oc2ccccc2)cc1` [compound 832820], the Ki is 0.0039 µM.

`CC(C)c1ccc(NC(=O)NC[C@@H]2C[C@H]2CN2CCN(c3csc4cc(C(F)(F)F)ccc34)CC2)cc1` [compound 832919]: the Ki was 0.0452 µM.

In the case of `COc1cccc(NC(=O)NC[C@@H]2C[C@H]2CN2CCN(c3csc4cc(C(F)(F)F)ccc34)CC2)c1` [compound 833203], the Ki stood at 0.0182 µM.

On to `O=C(NCCCN1CCCCC1)NC[C@@H]1C[C@H]1CN1CCN(c2csc3cc(C(F)(F)F)ccc23)CC1` [compound 833258], for which the Ki amounted to 0.00039 µM.

In the case of `O=C(NCCCn1ccnc1)NC[C@@H]1C[C@H]1CN1CCN(c2csc3cc(C(F)(F)F)ccc23)CC1` [compound 833306, 1-(3-Imidazol-1-yl-propyl)-3-{(1R, 2R )-2-[4-(6-trifluoromethyl-benzo[b]thiophen-3yl-)-piperazin-1-ylmethyl]-cyclopropylmethyl}-urea], the Ki was 0.000238 µM.

Regarding `C[C@H]1CC[C@H](NC(=O)NC[C@@H]2C[C@H]2CN2CCN(c3csc4cc(C(F)(F)F)ccc34)CC2)CC1` [compound 833356], the Ki came to 0.0291 µM.

`O=C(NCCCCN1CCN(c2csc3cc(C(F)(F)F)ccc23)CC1)Nc1ccc(C(=O)O)cc1` [compound 833724] registered a Ki of 0.0021 µM.

Turning to `O=C(NCCCCN1CCN(c2csc3cc(C(F)(F)F)ccc23)CC1)Nc1ccc(CO)cc1` [compound 833725], the Ki was determined as 0.000602 µM.

Staying with this assay, now noted: Table III; read-out: d3Ki.
Regarding `CC(=O)c1ccc(NC(=O)NCCCCN2CCN(c3csc4cc(C(F)(F)F)ccc34)CC2)cc1` [compound 815993], the Ki is 0.00226 µM.

Regarding `COc1ccc(NC(=O)NCCCCN2CCN(c3csc4cc(C(F)(F)F)ccc34)CC2)cc1` [compound 815994], the Ki turned out to be 0.00887 µM.

Consider `CCCOc1ccc(NC(=O)NCCCCN2CCN(c3csc4cc(C(F)(F)F)ccc34)CC2)cc1` [compound 815995], for which the Ki was determined as 0.0175 µM.
